Laboratory results taken from PubChem BioAssay (NCI).
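Test compounds were applied to cells in 96-well plates for 48 hours at 5 doses. GI50: concentration for 50% inhibition of growth. TGI: total growth inhibition.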

Legend:
Experiment in all cases: NCI tumour cell line growth inhibition, 48 h
SF-295 CNS = system: SF-295 CNS
LOX IMVI melanoma = system: LOX IMVI melanoma
SK-MEL-28 melanoma = system: SK-MEL-28 melanoma
MCF7 breast = system: MCF7 breast
SR leukemia = system: SR leukemia
HS 578T breast = system: HS 578T breast
A498 renal = system: A498 renal
ACHN renal = system: ACHN renal
UO-31 renal = system: UO-31 renal
M14 melanoma = system: M14 melanoma
NCI/ADR-RES ovarian = system: NCI/ADR-RES ovarian
MDA-MB-231 breast = system: MDA-MB-231 breast
CAKI-1 renal = system: CAKI-1 renal
HT29 colon = system: HT29 colon
RXF 393 renal = system: RXF 393 renal
SN12C renal = system: SN12C renal
SK-MEL-2 melanoma = system: SK-MEL-2 melanoma
T-47D breast = system: T-47D breast
SK-MEL-5 melanoma = system: SK-MEL-5 melanoma
MDA-MB-435 = system: MDA-MB-435
SF-539 CNS = system: SF-539 CNS
EKVX NSCLC = system: EKVX NSCLC
UACC-257 melanoma = system: UACC-257 melanoma
PC-3 prostate = system: PC-3 prostate
RPMI-8226 leukemia = system: RPMI-8226 leukemia
HCT-15 colon = system: HCT-15 colon
TK-10 renal = system: TK-10 renal
NCI-H460 lung = system: NCI-H460 lung
SNB-75 CNS = system: SNB-75 CNS
SW-620 colon = system: SW-620 colon
A549 NSCLC = system: A549 NSCLC
786-0 renal = system: 786-0 renal
HCT-116 colon = system: HCT-116 colon
CCRF-CEM leukemia = system: CCRF-CEM leukemia
MALME-3M melanoma = system: MALME-3M melanoma
SNB-19 CNS = system: SNB-19 CNS
MOLT-4 leukemia = system: MOLT-4 leukemia
HOP-62 NSCLC = system: HOP-62 NSCLC
OVCAR-3 ovarian = system: OVCAR-3 ovarian
U251 CNS = system: U251 CNS
NCI-H226 lung = system: NCI-H226 lung
BT-549 breast = system: BT-549 breast
NCI-H522 lung = system: NCI-H522 lung
NCI-H23 lung = system: NCI-H23 lung
COLO 205 colon = system: COLO 205 colon
HL-60(TB) leukemia = system: HL-60(TB) leukemia
DU-145 prostate = system: DU-145 prostate
OVCAR-4 ovarian = system: OVCAR-4 ovarian
SF-268 CNS = system: SF-268 CNS
OVCAR-5 ovarian = system: OVCAR-5 ovarian
K-562 leukemia = system: K-562 leukemia
HOP-92 NSCLC = system: HOP-92 NSCLC
OVCAR-8 ovarian = system: OVCAR-8 ovarian
HCC-2998 colon = system: HCC-2998 colon
KM12 colon = system: KM12 colon

Cc1[nH]c2cc(F)ccc2c1-c1nc2c3cccnc3c3ncccc3c2[nH]1
GI50 (SF-295 CNS): 253 nM | TGI (SF-295 CNS): 818 nM | GI50 (LOX IMVI melanoma): 47.2 nM | TGI (LOX IMVI melanoma): 697 nM | GI50 (SK-MEL-28 melanoma): 239 nM | TGI (SK-MEL-28 melanoma): 1720 nM | GI50 (MCF7 breast): 319 nM | TGI (MCF7 breast): 1650 nM | GI50 (SR leukemia): 72.3 nM | TGI (SR leukemia): 797 nM | GI50 (HS 578T breast): 1090 nM | TGI (HS 578T breast): 4740 nM | GI50 (A498 renal): 263 nM | TGI (A498 renal): 1060 nM | GI50 (ACHN renal): 254 nM | TGI (ACHN renal): 1450 nM | GI50 (UO-31 renal): 266 nM | TGI (UO-31 renal): 929 nM | GI50 (M14 melanoma): 187 nM | TGI (M14 melanoma): 667 nM | GI50 (NCI/ADR-RES ovarian): 550 nM | TGI (NCI/ADR-RES ovarian): 5370 nM | GI50 (MDA-MB-231 breast): 409 nM | TGI (MDA-MB-231 breast): 2400 nM | GI50 (CAKI-1 renal): 289 nM | TGI (CAKI-1 renal): 1190 nM | GI50 (HT29 colon): 436 nM | TGI (HT29 colon): 1660 nM | GI50 (RXF 393 renal): 190 nM | TGI (RXF 393 renal): 785 nM | GI50 (SN12C renal): 399 nM | TGI (SN12C renal): 3380 nM | GI50 (SK-MEL-2 melanoma): 504 nM | TGI (SK-MEL-2 melanoma): 1750 nM | GI50 (T-47D breast): 341 nM | TGI (T-47D breast): 1280 nM | GI50 (SK-MEL-5 melanoma): 169 nM | TGI (SK-MEL-5 melanoma): 726 nM | GI50 (MDA-MB-435): 342 nM | TGI (MDA-MB-435): 1480 nM | GI50 (SF-539 CNS): 287 nM | TGI (SF-539 CNS): 1290 nM | GI50 (EKVX NSCLC): 320 nM | TGI (EKVX NSCLC): 2690 nM | GI50 (UACC-257 melanoma): 228 nM | TGI (UACC-257 melanoma): 833 nM | GI50 (PC-3 prostate): 183 nM | TGI (PC-3 prostate): 2930 nM | GI50 (RPMI-8226 leukemia): 771 nM | TGI (RPMI-8226 leukemia): 2910 nM | GI50 (HCT-15 colon): 359 nM | TGI (HCT-15 colon): 18800 nM | GI50 (TK-10 renal): 396 nM | TGI (TK-10 renal): 2340 nM | GI50 (NCI-H460 lung): 322 nM | TGI (NCI-H460 lung): 1030 nM | GI50 (SNB-75 CNS): 473 nM | TGI (SNB-75 CNS): 1840 nM | GI50 (SW-620 colon): 282 nM | TGI (SW-620 colon): 1840 nM | GI50 (A549 NSCLC): 381 nM | TGI (A549 NSCLC): 2350 nM | GI50 (786-0 renal): 243 nM | TGI (786-0 renal): 973 nM | GI50 (HCT-116 colon): 164 nM | TGI (HCT-116 colon): 1500 nM | GI50 (CCRF-CEM leukemia): 67.2 nM | TGI (CCRF-CEM leukemia): 644 nM | GI50 (MALME-3M melanoma): 202 nM | TGI (MALME-3M melanoma): 769 nM | GI50 (SNB-19 CNS): 257 nM | TGI (SNB-19 CNS): 3870 nM | GI50 (MOLT-4 leukemia): 170 nM | TGI (MOLT-4 leukemia): 642 nM | GI50 (HOP-62 NSCLC): 270 nM | TGI (HOP-62 NSCLC): 1270 nM | GI50 (OVCAR-3 ovarian): 209 nM | TGI (OVCAR-3 ovarian): 1560 nM | GI50 (U251 CNS): 121 nM | TGI (U251 CNS): 1220 nM | GI50 (NCI-H226 lung): 168 nM | TGI (NCI-H226 lung): 812 nM | GI50 (BT-549 breast): 215 nM | TGI (BT-549 breast): 1570 nM | GI50 (NCI-H522 lung): 391 nM | TGI (NCI-H522 lung): 1460 nM | GI50 (NCI-H23 lung): 343 nM | TGI (NCI-H23 lung): 1890 nM | GI50 (COLO 205 colon): 178 nM | TGI (COLO 205 colon): 1260 nM | GI50 (HL-60(TB) leukemia): 205 nM | TGI (HL-60(TB) leukemia): 564 nM | GI50 (DU-145 prostate): 191 nM | TGI (DU-145 prostate): 1800 nM | GI50 (OVCAR-4 ovarian): 43.8 nM | TGI (OVCAR-4 ovarian): 1230 nM | GI50 (SF-268 CNS): 210 nM | TGI (SF-268 CNS): 2200 nM | GI50 (OVCAR-5 ovarian): 573 nM | TGI (OVCAR-5 ovarian): 2650 nM | GI50 (K-562 leukemia): 324 nM | TGI (K-562 leukemia): 4770 nM | GI50 (HOP-92 NSCLC): 204 nM | TGI (HOP-92 NSCLC): 1410 nM | GI50 (OVCAR-8 ovarian): 216 nM | TGI (OVCAR-8 ovarian): 1220 nM | GI50 (HCC-2998 colon): 117 nM | TGI (HCC-2998 colon): 1300 nM | GI50 (KM12 colon): 379 nM | TGI (KM12 colon): 1780 nM
